pIC50: −log10 of the molar value. In the oligonucleotide strings, read from the 5' end, every base follows the letter of its sugar. An asterisk marks phosphorothioate; unmarked linkages are phosphodiester. Other units and linkages are bracketed, terminal groups are in braces. A string of capitals states the bases alone. e = 2'-O-(2-methoxyethyl) (MOE); [5mC] = 5-methylcytosine; d = 2'-deoxy (DNA)
Legend:
[1] = test system: murine IL-5 receptor α mRNA, membrane form; assay: Membrane IL-5 receptor α mRNA by Northern blot in BCL1 cells; type: cell-based, mouse; conditions: BCL1 cells, 10 μM; for % control membrane IL-5 Rα / % inhib'n membrane IL-5 Rα: 24 hours, uniform 2′-MOE; for % inhibition of membrane IL-5 Rα: Northern blot, compared to untreated control, 2′-MOE gapmers
Source text: (§1) Murine BCL1 cells were chosen for screening antisense oligonucleotides targeted to murine IL-5 receptor α. These are B-cell leukemia cells derived from a spontaneously arising tumor of BALB/c origin, and proliferate in response to murine or human IL-5. This is a CD5+line which resembles a subset of human chronic lymphocytic leukemia tumors and secretes IgM upon lipopolysaccharide stimulation. Cells were obtained from the American Type Culture Collection and cultured in RPMI 1640 medium supplemented with 10% heat-inactivated fetal bovine serum (Sigma Chemical Co., St. Louis, Mo.), 10 mM Hepes, pH 7.2, 50 μM 2-ME, 2 mM L-glutamine, 100 U/ml penicillin and 100 μg/ml streptomycin (Gibco, Grand Island, N.Y.).
(§2) The effect of these compounds on both membrane and soluble forms of murine IL-5 receptor α were measured and are shown in Table 1B. Oligonucleotides were screened in BCL1 cells at a dose of 10 μM and IL-5 receptor α mRNA was measured by Northern blot. Percent inhibition is compared to untreated (no oligo) control.
(§3) Total BCL1 cellular RNA was isolated using the RNeasy™ kit (Qiagen, Santa Clara Calif.) . Northern blotting was performed using standard methods. The cDNA probes were generated from oligonucleotides matching the exon sequences of either exons 2, 8, 9 or 10. Signals were quantitated using a Molecular Dynamics PhosphorImager.

[2] = test system: murine IL-5 receptor α mRNA, soluble form; assay: Soluble IL-5 receptor α mRNA by Northern blot in BCL1 cells; type: cell-based, mouse; conditions: BCL1 cells, 10 μM; for % control soluble IL-5 Rα: 24 hours, uniform 2′-MOE
Source text: as §1, §2, §3

[3] = test system: Human IL-5 receptorα membrane form mRNA; assay: Human IL-5 receptorα membrane form mRNA expression (18 hr); type: cell-based; parameters: % INHIB'N, human IL-5 receptorα membrane form mRNA / % of CONTROL, human IL-5 receptorα membrane form mRNA: concentration or dose not given beside the values; conditions: 18 hr
Source text: mRNA transcripts encoding the membrane form of the human IL-5 receptorα contain exons 1-10 and 12-14. Exon 11 is spliced out. It is, therefore, possible to target sequences in exons 1-10 which are common to both soluble and membrane forms of the receptor, or to selectively target sequences only present in the membrane form (exons 12-14). Oligonucleotides were also designed to target various intron/exon boundaries downstream of exon 11, with the intention of preventing successful splicing out of exon 11 and thus redirecting splice products away from the membrane form and in favor of the soluble form of IL-5 receptorα.
(§4) A series of oligonucleotides were designed to target various splice sites or (intron-exon boundaries) in the IL-5 receptor mRNA.

[4] = test system: Human IL-5 receptorα; assay: Human IL-5 receptorα protein expression on the cell surface (36 hr), TF-1 cells; type: cell-based; parameters: % INHIB, human IL-5 receptorα protein on the cell surface / % of CONTROL, human IL-5 receptorα protein on the cell surface: concentration or dose not given beside the values; conditions: for % INHIB, human IL-5 receptorα protein on the cell surface / % of CONTROL, human IL-5 receptorα protein on the cell surface: 36 hr
Source text: as §4
ISIS 16746, 16748, 16755 and 16758 inhibited human IL-5 receptorα protein by over 50% in this assay and are therefore preferred. ISIS 16758 and 16755 were chosen for further study.

Substance	% INHIB'N, human IL-5 receptorα membrane form mRNA [3]	% INHIB, human IL-5 receptorα protein on the cell surface [4]	% of CONTROL, human IL-5 receptorα membrane form mRNA [3] [%]	% of CONTROL, human IL-5 receptorα protein on the cell surface [4] [%]	further results
21756 (eA*eA*e[5mC]*eA*eA*eG*eA*e[5mC]*eG*eA*eA*eG*e[5mC]*eA*eG*eG*e[5mC]*eA*eG*e[5mC]; splice-switching) [compound 21756]					% control membrane IL-5 Rα [1]: 6%; % inhib'n membrane IL-5 Rα [1]: 94%; % control soluble IL-5 Rα [2]: 166%
21757 (eT*eG*eA*eG*eA*eA*eG*eA*eT*eT*eA*eA*e[5mC]*eA*eA*eG*eA*e[5mC]*eG*eA; splice-switching) [compound 21757]					% control membrane IL-5 Rα [1]: 19%; % inhib'n membrane IL-5 Rα [1]: 81%; % control soluble IL-5 Rα [2]: 144%
ISIS 16748: ACCCAGCTTTCTGCAAAACA, SEQ ID 31; human IL-5R I13/E14; 2′-MOE pattern not visible (antisense eA*e[5mC]*e[5mC]*e[5mC]*eA*dG*dC*dT*dT*dT*dC*dT*dG*dC*dA*eA*eA*eA*e[5mC]*eA)	over 50%	over 50%			
16753 (antisense dT*dA*dA*dA*dT*dG*dA*dC*dA*dT*e[5mC]*eT*eG*eA*eA*eA*eA*e[5mC]*eA*eG) [compound 16753]	2%	4%	98	96	
18004 (TGTTGGGAGCACAATGAGAT; antisense; listed as DNA, chemistry not fully specified) [compound 18004]					% inhibition of membrane IL-5 Rα [1]: 10%; % inhibition of soluble IL-5 Rα ([2]; Northern blot, compared to untreated control, 2′-MOE gapmers): 20%
16760 (antisense eT*e[5mC]*eA*eT*e[5mC]*dA*dT*dT*dT*dC*dC*dT*dG*dG*dT*eG*eG*eA*eA*eA) [compound 16760]	24%	29%	76	71	
16751 (antisense eT*e[5mC]*eA*eA*e[5mC]*dA*dT*dT*dA*dC*dC*dT*dC*dA*dT*eA*eG*eT*eT*eA) [compound 16751]	4%		96	101	
16759 (antisense dT*dC*dA*dT*dC*dA*dT*dT*dT*dC*e[5mC]*eT*eG*eG*eT*eG*eG*eA*eA*eA) [compound 16759]	19%	24.5%	81	75.5	
16747 (antisense ACCCAGCTTTCTGCAAAACA; listed as DNA, chemistry not fully specified) [compound 16747]	34%	19.5%	66	80.5	
16749 (antisense eT*e[5mC]*eA*eA*e[5mC]*eA*eT*eT*eA*e[5mC]*e[5mC]*eT*e[5mC]*eA*eT*eA*eG*eT*eT*eA) [compound 16749]		25%	101	75	
16750 (antisense dT*dC*dA*dA*dC*dA*dT*dT*dA*dC*e[5mC]*eT*e[5mC]*eA*eT*eA*eG*eT*eT*eA) [compound 16750]	4%	9%	96	91	
ISIS 18009: TCATCATTTACTGGTGGAAA, SEQ ID 36; mismatch of 16758 (antisense eT*e[5mC]*eA*eT*e[5mC]*eA*eT*eT*eT*eA*e[5mC]*eT*eG*eG*eT*eG*eG*eA*eA*eA) [reference compound]					pIC50 ([4]; TF-1 cells, read-out: IC50 for reduction of IL-5 receptorα cell surface protein): 5.00
16746 (antisense eA*e[5mC]*e[5mC]*e[5mC]*eA*eG*e[5mC]*eT*eT*eT*e[5mC]*eT*eG*e[5mC]*eA*eA*eA*eA*e[5mC]*eA) [compound 16746]	64%	65%	36	35	
16755 (antisense eG*eA*eA*e[5mC]*eA*e[5mC]*eT*eT*eA*e[5mC]*eA*eT*eT*eT*eT*eA*e[5mC]*eA*eG*eA) [compound 16755]	84%	89.5%	15.5	10.5	
16757 (antisense eG*eA*eA*e[5mC]*eA*dC*dT*dT*dA*dC*dA*dT*dT*dT*dT*eA*e[5mC]*eA*eG*eA) [compound 16757]	9%	19%	91	81	
ISIS 16746: ACCCAGCTTTCTGCAAAACA, SEQ ID 31; human IL-5R I13/E14; 2′-MOE pattern (bold) not visible (antisense eA*e[5mC]*e[5mC]*e[5mC]*eA*eG*e[5mC]*eT*eT*eT*e[5mC]*eT*eG*e[5mC]*eA*eA*eA*eA*e[5mC]*eA)	over 50%	over 50%			
16754 (antisense eT*eA*eA*eA*eT*dG*dA*dC*dA*dT*dC*dT*dG*dA*dA*eA*eA*e[5mC]*eA*eG) [compound 16754]			101	100.5	
ISIS 18002: GCCATTCTACCAAGGACTTC, SEQ ID 2; 2′-MOE gapmer, mouse IL-5R exon 9 (listed as DNA, chemistry not fully specified)					% inhibition of membrane IL-5 Rα [1]: inhibitor of both forms of IL-5 receptorα
ISIS 18010: TCAGCATTTACTGGTGTAAA, SEQ ID 37; mismatch of 16758 (antisense eT*e[5mC]*eA*eG*e[5mC]*eA*eT*eT*eT*eA*e[5mC]*eT*eG*eG*eT*eG*eT*eA*eA*eA) [reference compound]					inhibition of IL-5 receptorα expression (mismatch controls) ([4]; TF-1 cells): did not inhibit
16748 (antisense ACCCAGCTTTCTGCAAAACA; listed as DNA, chemistry not fully specified) [compound 16748]	75%	59.5%	25	40.5	
16752 (antisense eT*eA*eA*eA*eT*eG*eA*e[5mC]*eA*eT*e[5mC]*eT*eG*eA*eA*eA*eA*e[5mC]*eA*eG) [compound 16752]			101	100.5	
16756 (antisense dG*dA*dA*dC*dA*dC*dT*dT*dA*dC*eA*eT*eT*eT*eT*eA*e[5mC]*eA*eG*eA) [compound 16756]	4%		96	101	
ISIS 18011: TCAGCAGTTACTTGTGTAAA, SEQ ID 38; 5-mismatch for 16758 (antisense eT*e[5mC]*eA*eG*e[5mC]*eA*eG*eT*eT*eA*e[5mC]*eT*eT*eG*eT*eG*eT*eA*eA*eA) [reference compound]					inhibition of IL-5 receptorα expression (mismatch controls) ([4]; TF-1 cells): did not inhibit

— patent US20020049173A1, “Alteration of cellular behavior by antisense modulation of mRNA processing” (priority 1999, published 2002)
